Target: Indoleamine 2,3-dioxygenase 1 (Homo sapiens, UniProt P14902)
Test: Inhibition of IDO1 in IFN-gamma stimulated human HeLa cells assessed as inhibition of kynurenine production pre-incubated for 1 hr followed by IFN-gamma addition and measured after 18 hrs
Type: cell-based

Chain of Indoleamine 2,3-dioxygenase 1 (P14902 whole entry): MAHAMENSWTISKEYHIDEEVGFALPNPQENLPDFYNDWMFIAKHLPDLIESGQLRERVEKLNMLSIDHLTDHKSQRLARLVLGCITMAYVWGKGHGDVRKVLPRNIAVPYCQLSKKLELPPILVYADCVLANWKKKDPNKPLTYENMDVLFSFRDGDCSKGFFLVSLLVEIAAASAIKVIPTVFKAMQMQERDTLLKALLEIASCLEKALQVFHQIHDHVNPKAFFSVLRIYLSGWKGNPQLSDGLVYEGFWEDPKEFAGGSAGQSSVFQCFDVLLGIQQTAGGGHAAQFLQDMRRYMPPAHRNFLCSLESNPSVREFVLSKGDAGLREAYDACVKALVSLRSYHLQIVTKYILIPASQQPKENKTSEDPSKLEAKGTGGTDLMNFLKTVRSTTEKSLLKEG

| Structure (SMILES) | IC50 [nM] |
| --- | --- |
| Cc1ccc(NC(=O)Nc2cc(-c3ccc(C(=O)O)cc3)ccc2Oc2ccccc2C(C)(C)C)cc1 | > 1000 |
| Cc1ccc(NC(=O)Nc2cc(-c3ccccc3C(=O)O)ccc2N(C)c2ccccc2C(C)(C)C)cc1 | > 1000 |
| Cc1ccc(NC(=O)Nc2cc(-c3ccccc3C(=O)O)ccc2N(CC(C)C)C(C)C)cc1 | 42 |
| COCCN(CCOC)c1ccc(-c2ccccc2C(=O)O)cc1NC(=O)Nc1ccc(C)cc1 | > 1000 |
| Cc1ccc(NC(=O)Nc2cc(-c3ccccc3-c3nnn[nH]3)ccc2N(CC(C)C)CC(C)C)cc1 | 4 |
| Cc1ccc(NC(=O)Nc2cc(-c3cccc(C(=O)O)c3)ccc2Oc2ccccc2C(C)(C)C)cc1 | > 1000 |
| CCN(c1ccc(-c2ccccc2C(=O)O)cc1NC(=O)Nc1ccc(C)cc1)C1CCCC1 | 23 |
| Cc1ccc(N2CCN(c3cc(-c4ccccc4-c4nnn[nH]4)ccc3N(CC(C)C)CC(C)C)C2=O)cc1 | 28 |
| Cc1ccc(NC(=O)Nc2cc(-c3ccccc3NS(=O)(=O)C(F)(F)F)ccc2N(CC(C)C)CC(C)C)cc1 | 76 |
| Cc1ccc(NC(=O)Nc2cc(-c3ccccc3C(=O)O)ccc2N(CC(C)C)CC(C)C)cc1 | 13 |
| Cc1ccc(NC(=O)Nc2cc(-c3ccccc3C(=O)O)ccc2N(C)C2CCCCC2)cc1 | 14 |
| Cc1ccc(NC(=O)N(C)c2cc(-c3ccccc3-c3nnn[nH]3)ccc2N(CC(C)C)CC(C)C)cc1 | 97 |
| Cc1ccc(N(C)C(=O)Nc2cc(-c3ccccc3-c3nnn[nH]3)ccc2N(CC(C)C)CC(C)C)cc1 | 405 |
| Cc1ccc(NC(=O)Nc2cc(-c3ccccc3C(=O)NS(=O)(=O)C(F)(F)F)ccc2N(CC(C)C)CC(C)C)cc1 | > 1000 |
| CCCCN(CCCC)c1ccc(-c2ccccc2C(=O)O)cc1NC(=O)Nc1ccc(C)cc1 | 45 |
| Cc1ccc(NC(=O)Nc2cc(-c3ccccc3NS(C)(=O)=O)ccc2N(CC(C)C)CC(C)C)cc1 | > 1000 |
